The data set relates to TLR3. Put plainly: TLR3 mediated immunostimulation (OAS1 mRNA increase) in NHBE cells. Type of data set: cell-based, human. The conditions noted are these: % increase in OAS1 mRNA, 0.01-100 nM siNA, n = 3 donors. As to the method:
NHBE cell were treated as describe above in Example 2 and used for the measurement of endosomal TLR3 mediated immunostimulation, with the inclusion of polyI:C as a positive control for OAS1 mRNA upregulation. For the measurement of membrane bound TLR3 mediated immunostimulation, the NHBE cells were cultured at 1200 cells/per 96 well and siNAs administered in PBS in the absence of a delivery vehicle at (100 nM, 30 nM, 10 nM, 3 nM, 1 nM, 0.3 nM, 0.1 nM, 0.03 nM, 0.01 nM).
Cell surface TLR3 mediated immunostimulation responses were measured by recording the % increase in OAS1 mRNA levels when the NHBE cells were treated with the siNAs in the absence of a delivery vehicle. (% increase in OAS1 mRNA levels relative to the PBS dilutant).
To determine immunostimulation TLR3 mediated % increase in OAS1(immunostimulatory biomarker) mRNA levels, a nine point dose response was measured using 0.01-100 nM concentration of siNA 25368-DC and siNA 25372-DC.
Endosomal TLR3 mediated immuno stimulation was measured by recording the % increase in OAS1 mRNA levels when the NHBE cells were transfected with the siNAs. (% increase in OAS1 mRNA levels relative to the transfection agent control). The TLR3 agonist Poly I:C is used as a positive control for OAS1 mRNA induction.

[invAb] = inverted abasic unit; m = 2'-O-methyl; r = 2'-OH (RNA); f = 2'-fluoro

In the case of “25368-DC: STAT1 siNA duplex, human target site 782; modified strands SEQ ID NO: 73 and 74 (chain 1 GUAAAGUCAGAAAUGUGAATT; chain 2 UUCACAUUUCUGACUUUACUU; chain 1: DNA at AGT, 2'-fluoro at CU, [invAb] at 5' end, 3' end, backbone not given here; chain 2: sugars from the 5' end rrrmfmfffffmmffffmfmm, backbone not given here)”, the “Immunostimulation TLR3 mediated OAS1” value is “No significant effect up to 100 nM”. The same measure for “25372-DC: STAT1 siNA duplex, human target site 968; modified strands SEQ ID NO: 81 and 82 (chain 1 UUGACAAUAAGAGAAAGGATT; chain 2 UCCUUUCUCUUAUUGUCAAUU; chain 1: DNA at AGT, 2'-fluoro at CU, [invAb] at 5' end, 3' end, backbone not given here; chain 2: sugars from the 5' end rrrffffffffmffmffmmmm, backbone not given here)”: “No significant effect up to 100 nM”.
